Experimental data published in patent publication US11723894B2, “Combination product for the treatment of neurological and/or psychiatric disorders” (Consejo Superior de Investigaciones Cientificas (CSIC), priority 2017, dated 2023).

How the values were obtained:
[1] = 6-OHDA in vitro model of Parkinson's Disease, cell viability (MTT); assay type: cell-based, human; conditions: human, SH-SY5Y dopaminergic cells, 6-OHDA alone 30 μM 24 h
Source text: (§1) Example 9: DMT, DET, DPT and 5-MeO-DMT prevent dopaminergic cell death and inflammation (Only Measured for DMT) caused by the potent and selective dopaminergic toxin 6-OHDA in an in vitro model of Parkinson's Disease. These desired effects are preserved in the presence of the 5-HT2A antagonist Ritanserin (Rit). The Human SH-SY5Y dopaminergic cell line was obtained from Sigma-Aldrich, cultured in 96-well plates and propagated in RPMI medium containing glutamine (1%) and 15% of fetal bovine serum (FBS) plus antibiotic (gentamicin), under humidified 5% CO2 and 95% air. On attaining semiconfluence, separate groups of cells were treated with either: a) one of the four hallucinogenic tryptamines at 1 μM for 1 h, followed by 6-OHDA at 30 μM for 24 hours; or b) Rit at 1 μM for 1h, followed one of the four hallucinogenic tryptamines at 1 μM for an additional hour, at which point 6-OHDA was administered, also at 30 μM, and kept for 24 hours. Vehicle-treated cultures were used as controls. Cell cultures were then processed to assess cell viability (for all four tryptamines) and quantification of nitrite concentration (only performed in the DMT and DMT+Rit tests). Cell viability was measured using the MTT assay (Roche Diagnostic, GmbH), which is based on the ability of viable cells to reduce yellow MTT to blue formazan. After the aforementioned 24 h period in the presence of the different tryptamines or the respective tryptamine+Rit combinations, cells were incubated with MTT (0.5 mg/ml, 4 h) and subsequently solubilized in 10% SDS/0.01 M HCl for 12 h in the dark. The extent of MTT reduction was quantified by absorbance measurement at the 595 nm wavelength, as indicated in the instructions provided by the manufacturer. Nitrite quantification: Due to access to equipment problems at the time the experiments with DET, DPT and 5-MeO-DMT were conducted, the assessment of nitrite levels in the medium could only be done for the DMT experiments. These determinations were carried out as described in Example 8. Results from the cell viability tests are expressed as the percentage of viable dopaminergic cells measured. Results from nitrite determinations are expressed as actual concentrations (μM). Results from both techniques are presented in bar graphs.

[2] = tested on: dopaminergic neurons of the Substantia nigra pars compacta; assay: 6-OHDA in vivo model of Parkinson's Disease (injection into Substantia nigra pars compacta); set-up: species or system C57BL/6 mice; conditions: 5 μg 6-OHDA alone into SNpc, 3 weeks
Experimental: Example 10: DMT administration prevents dopaminergic cell death in a in vivo model of Parkinson's disease. Adult male C57BL/6 mice (8-12 weeks old) were used in this study. Animals were properly anaesthetized and placed in a stereotaxic apparatus (Kopf Instruments, CA). 6-OHDA (5 μg in […] PBS) was injected into the right side of the Substantia nigra pars compacta (SNpc) (coordinates from Bregma: posterior −3.2 mm; lateral +2.0 mm; ventral: +4.7 mm, according to the atlas of Paxinos and Franklin, The Mouse Brain in Stereotaxic Coordinates. 4. San Diego: Academic Press; 2012). Control animals of the same age were injected with PBS. A third group received an injection with 6-OHDA (5 μg) combined with DMT (0.1 μg) in […] PBS. Mice were then housed individually to recover and sacrificed 3 weeks later. At this point animals were anaesthetized and perfused transcardially with a 4% paraformaldehyde solution. The brains were removed, postfixed in the same solution at 4° C. overnight, cryoprotected in 20% sucrose, frozen, and 30 μm coronal sections were obtained in a cryostat. Free-floating sections were processed for double fluorescent immunohistochemistry. […] Neuronal integrity and specifically dopaminergic cell death was assessed by counting the percentage of TH^+ cells in the SNpc following a stereological approach. […] Images were analyzed using computer-assisted image analysis software (Soft Imaging System Corporation, Lakewood, Colo.). Results were expressed as the percentage of dopaminergic cell loss in the SNpc.

astrocytes = assay: LPS-induced nitrite production (Griess) in primary astrocyte cultures; assay type: cell-based, rat; conditions: for reduction of LPS-induced nitrite in the presence of Rit: Rit 1 μM 1 h before tryptamine 1 μM, then LPS 10 μg/mL 24 h; for LPS-induced nitrite increases: tryptamine 1 μM before LPS 10 μg/mL, 24 h, vs LPS alone
Experimental: (§2) Example 8: DMT, DET, DPT and 5-MeO-DMT administration in vitro prevents inflammation in rat primary glial cells. […] Rat primary glial cell cultures were prepared from the cerebral cortex of 3 day old rats which were dissected, dissociated, and incubated with 0.25% trypsin/EDTA at 37° C. for 1 h. After centrifugation, the pellet was washed three times with HBSS (Gibco) and the cells were plated in poly-D-lysine (20 μg/mL) pretreated flasks (75 cm2). After 7-10 days, the flasks were agitated in an orbital shaker for 4 h at 230 rpm at 37° C. and non-adherent microglial cells were isolated and plated. Then Dulbecco's Modified Eagle's Medium (DMEM) was added to the flasks, which were agitated in a horizontal shaker at 260 rpm at 37° C. After overnight agitation, the supernatant (oligodendrocytes and some remaining microglial cells) was removed, and astrocytes (adherent cells) were collected. The purity of the cultures was >95%, as determined by immunofluorescence analysis using an anti-glial fibrillary acidic protein (GFAP; clone G-A-5; Sigma-Aldrich) antibody to identify astrocytes, and an anti-Iba1 (Wako Catalog No. 019-19741) antibody to identify microglial cells. On attaining semiconfluence, cells were administered each of the test tryptamines at 1 μM or with the combination test tryptamine+Ritanserin (Rit at 1 μM) 2 h before exposure to lipopolysaccharide (LPS, 10 μg/mL; Sigma-Aldrich) and kept in the presence of each drug or drug combination for 24 h. In combination studies, Rit was added to medium 1h before administration of the corresponding tryptamine. Vehicle-treated cultures were used as a control. After the 24 h drug exposure period, cultures were tested to assess nitrite release. To quantify nitrite concentrations in culture medium, supernatants of glial cultures were collected and mixed with an equal volume of Griess reagent (Sigma-Aldrich). Samples were then incubated at room temperature for 15 min and absorbance was measured at 540 nm on a microplate reader. Results are expressed as the mean±SEM of six replications in three different experiments

[3] = tested on: Human SH-SY5Y dopaminergic cells; assay: 6-OHDA in vitro model of Parkinson's Disease, cell viability (MTT); assay type: cell-based; conditions: tryptamine 1 μM 1 h, then 6-OHDA 30 μM 24 h; for reduction in dopaminergic cell death in the presence of Ritanserin: Rit 1 μM 1 h; for percentage of viable dopaminergic neurons: vs 6-OHDA alone
Source text: as §1

microglial cells = assay: LPS-induced nitrite production (Griess) in primary microglial cultures; assay type: cell-based, rat; conditions: microglia; for reduction of LPS-induced nitrite in the presence of Rit: Rit 1 μM 1 h before tryptamine 1 μM, then LPS 10 μg/mL 24 h; for LPS-induced nitrite increases: tryptamine 1 μM before LPS 10 μg/mL, 24 h, vs LPS alone
Experimental: as §2

## NCCc1cc(O)c(O)cc1O [6-OHDA, 6-hydroxy-dopamine, reference compound]
[1]; DET, DPT and 5-MeO-DMT experiments, read-out: cell viability, of the reference control value
  viability at 24 h, 30 μM: ~60%
[1]; DMT experiments (graph A.1), read-out: reduction in the number of viable dopaminergic cells compared to vehicle treated cultures
  cytotoxicity at 24 h, 30 μM: 50%
[2]
  average percentage of dopaminergic cell loss in the SNpc: 60%

## COc1ccc2[nH]cc(CCN(C)C)c2c1 [5-MeO-DMT, 5-methoxy-N,N-dimethyltryptamine]
astrocytes
  reduction of LPS-induced nitrite in the presence of Rit: maintained
  LPS-induced nitrite increases: significantly reduced
[3]
  reduction in dopaminergic cell death in the presence of Ritanserin: maintained
  percentage of viable dopaminergic neurons: significant increases
Microglial cells
  reduction of LPS-induced nitrite in the presence of Rit: maintained
  LPS-induced nitrite increases: significantly reduced

## CCCN(CCC)CCc1c[nH]c2ccccc12 [DPT, N,N-dipropyltryptamine]
astrocytes
  reduction of LPS-induced nitrite in the presence of Rit: maintained
  LPS-induced nitrite increases: significantly reduced
[3]
  reduction in dopaminergic cell death in the presence of Ritanserin: maintained
  percentage of viable dopaminergic neurons: significant increases
Microglial cells
  reduction of LPS-induced nitrite in the presence of Rit: maintained
  LPS-induced nitrite increases: significantly reduced

## CCN(CC)CCc1c[nH]c2ccccc12 [DET, N,N-diethyltryptamine]
astrocytes
  reduction of LPS-induced nitrite in the presence of Rit: maintained
  LPS-induced nitrite increases: significantly reduced
[3]
  reduction in dopaminergic cell death in the presence of Ritanserin: maintained
  percentage of viable dopaminergic neurons: significant increases
Microglial cells
  reduction of LPS-induced nitrite in the presence of Rit: maintained
  LPS-induced nitrite increases: significantly reduced
